In patent EP3275434A1, “AN EXTENDED RELEASE ORAL DOSAGE FORM” (SANDOZ AG, priority 2016, dated 2018):

Experiments:
[1] = blood plasma concentration of veliparib against time, immediate release 400 mg twice a day; assay type: in vivo; conditions: 10 x 40 mg twice a day, daily dose 800 mg
Excerpt: The term peak plasma concentration is Cmax in blood plasma observed after administration. The term trough plasma concentration is Cmin in blood plasma observed after administration and just prior to the administration of a subsequent dose in a given dosage regimen. The veliparib plasma concentration can be determined according to the approach described in Mostafa et al., Cancer Chemother Pharmacol (2014) 74: 583-591. Pharmacokinetic terms have the typical meaning as recognized in the art and in case of doubt are to be interpreted according to the European Pharmacopoeia Version 8.8.
The present inventors have realized that the In-vivo plasma concentration profile of veliparib when administered as immediate release dosage forms at 400 mg BID, can be such that the blood plasma fluctuations are quite high. […] Thus, undesireably high peak concentrations are obtained in order to keep the trough concentration above a therapeutic threshold. In contrast, the extended release dosage form of the present invention enables the provision of therapeutically effective trough concentrations at all times without attaining such a high peak concentration. Moreover, when the extended release dosage form of the present invention is administered twice daily, even an overall dose reduction can be obtained while at the same time keeping the through concentration above the therapeutic threshold.
In this experiment 10 tablets containing 40 mg veliparib each prepared in accordance with Comparative example 1 are administered twice a day, 12h apart, to meet a daily dose of 800 mg. A plot displaying the pharmacokinetic behaviour of veliparib is obtained by plotting the blood plasma concentration of veliparib against time (Figure 1). […] The Cmax/Cmin ratio for veliparib is almost 7.

[2] = cited from earlier work

Cmax/Cmin ratio [1]: about 7 | Cmin [1]: around 0.5 µg/ml | Cmax ([1]; plasma, po, 400 mg): ~3500 ng/mL
Compound: C[C@]1(c2nc3c(C(N)=O)cccc3[nH]2)CCCN1 [veliparib, 2-((R)-2-Methylpyrrolidin-2-yl)-1H-benzimidazole-4-carboxamide]
side effects reported ([2]; immediate release tablet at 2 x 400 mg per day): anemia, fatigue, nausea, pain and cough | elimination half-life ([2]; in vivo): about 6 hours
